According to patent US10730863B2, “Bridged bicyclic compounds as farnesoid X receptor modulators” (BRISTOL-MYERS SQUIBB COMPANY, priority 2017, dated 2020):

Biological target: FXR (Homo sapiens (Human), UniProt Q96RI1)
Test: FXR EC50 (FXR agonist activity reported with each example)
Assay type: cell-based

Chain of FXR (Q96RI1 262-486): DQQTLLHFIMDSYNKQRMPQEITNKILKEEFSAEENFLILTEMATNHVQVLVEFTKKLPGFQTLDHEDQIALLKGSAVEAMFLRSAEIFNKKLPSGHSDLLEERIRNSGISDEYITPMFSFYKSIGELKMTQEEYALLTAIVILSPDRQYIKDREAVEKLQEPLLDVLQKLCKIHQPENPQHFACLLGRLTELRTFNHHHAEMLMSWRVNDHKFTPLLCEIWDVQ

SMILES | EC50 [nM]
O=C(O)c1cc(OC(CO)CCl)c2cc(OCC34CCC(OCc5c(-c6c(Cl)cncc6Cl)noc5C5CC5)(CC3)CC4)ccc2n1 (centres unmarked) [Example 354, 4-((1-chloro-3-hydroxypropan-2-yl)oxy)-6-((4-((5-cyclopropyl-3-(3,5-dichloropyridin-4-yl)isoxazol-4-yl)methoxy)bicyclo[2.2.2]octan-1-yl)methoxy)quinoline-2-carboxylic acid] | 200
CC(C)COc1cc(C(=O)O)nc2ccc(OCC34CCC(OCc5c(-c6c(Cl)cncc6Cl)noc5C5CC5)(CC3)CC4)cc12 [Example 355] | 18
O=C(O)c1cc(OCC(CO)CCl)c2cc(OCC34CCC(OCc5c(-c6c(Cl)cncc6Cl)noc5C5CC5)(CC3)CC4)ccc2n1 (centres unmarked) [Example 356] | 110
CC(C)Oc1nc(C(=O)O)cc2ccc(OCC34CCC(OCc5c(-c6c(Cl)cncc6Cl)noc5C5CC5)(CC3)CC4)cc12 [Example 357, 7-((4-((5-cyclopropyl-3-(3,5-dichloropyridin-4-yl)isoxazol-4-yl)methoxy)bicyclo[2.2.2]octan-1-yl)methoxy)-1-isopropoxyisoquinoline-3-carboxylic acid] | 13
COc1cc(OCC23CCC(OCc4c(-c5c(Cl)cncc5Cl)noc4C4CC4)(CC2)CC3)ccc1C(=O)O [Example 358] | 52
O=C(O)c1cc(OCC2COC2)c2cc(OCC34CCC(OCc5c(-c6c(Cl)cncc6Cl)noc5C5CC5)(CC3)CC4)ccc2n1 [Example 360] | 140
O=C(O)c1cc(OC2COC2)c2cc(OCC34CCC(OCc5c(-c6c(Cl)cncc6Cl)noc5C5CC5)(CC3)CC4)ccc2n1 [Example 361] | 71
O=C(O)c1ccc2c(c1)CN(CC13CCC(OCc4c(-c5c(Cl)cccc5Cl)noc4C4CC4)(CC1)CC3)CC2 [Example 362, 2-((4-((5-cyclopropyl-3-(2,6-dichlorophenyl)isoxazol-4-yl)methoxy)bicyclo[2.2.2]octan-1-yl)methyl)-1,2,3,4-tetrahydroisoquinoline-7-carboxylic acid] | 170
Cn1cc(C(=O)O)c2ccc(C#CC34CCC(OCc5c(-c6c(Cl)cncc6Cl)noc5C5CC5)(CC3)CC4)nc21 [Example 363] | 260
O=C(O)c1cc(C(F)(F)F)c2cc(C#CC34CCC(OCc5c(-c6c(Cl)cncc6Cl)noc5C5CC5)(CC3)CC4)ccc2n1 [Example 364] | 42
Cn1nc(C(=O)O)c2ccc(C34CCC(OCc5c(-c6c(Cl)cncc6Cl)noc5C5CC5)(CC3)CC4)nc21 [Example 365] | 49
O=C(O)c1cc(C#CC23CCC(OCc4c(-c5c(Cl)cncc5Cl)noc4C4CC4)(CC2)CC3)cc(C(F)(F)F)c1 [Example 366] | 27
COc1ccc(C#CC23CCC(OCc4c(-c5c(Cl)cncc5Cl)noc4C4CC4)(CC2)CC3)cc1C(=O)O [Example 367] | 91
O=C(O)c1cccc2nc(C34CCC(OCc5c(-c6c(Cl)cncc6Cl)noc5C5CC5)(CC3)CC4)ccc12 [Example 368] | 36
O=C(O)c1cc(F)c2nc(C34CCC(OCc5c(-c6c(Cl)cncc6Cl)noc5C5CC5)(CC3)CC4)ccc2c1 [Example 369] | 41
O=C(O)c1cc(C(F)(F)F)c2nc(C34CCC(OCc5c(-c6c(Cl)cncc6Cl)noc5C5CC5)(CC3)CC4)ccc2c1 [Example 370] | 56
COc1ccc(C(=O)O)c2ccc(C34CCC(OCc5c(-c6c(Cl)cncc6Cl)noc5C5CC5)(CC3)CC4)nc12 [Example 371] | 18
O=C(O)c1cc(C(F)(F)F)c2nccc(C34CCC(OCc5c(-c6c(Cl)cncc6Cl)noc5C5CC5)(CC3)CC4)c2c1 [Example 372] | 570
O=C(O)c1cc(C(F)(F)F)cc(C#CC23CCC(OCc4c(-c5c(Cl)cncc5Cl)noc4C4CC4)(CC2)CC3)n1 [Example 373] | 460

SMILES | EC50 [nM]
O=C(O)c1cnc(C#CC23CCC(OCc4c(-c5c(Cl)cncc5Cl)noc4C4CC4)(CC2)CC3)cc1C(F)(F)F [Example 374] | 130
COc1cc(C(=O)O)nc2ccc(C#CC34CCC(OCc5c(-c6c(Cl)cncc6Cl)noc5C5CC5)(CC3)CC4)cc12 [Example 375] | 57
O=C(O)c1cc(OC(F)F)c2cc(C#CC34CCC(OCc5c(-c6c(Cl)cncc6Cl)noc5C5CC5)(CC3)CC4)ccc2n1 [Example 376] | 27
COc1cc(C#CC23CCC(OCc4c(-c5c(Cl)cncc5Cl)noc4C4CC4)(CC2)CC3)nc(C(=O)O)c1 [Example 377] | 390
O=C(O)c1cc(C#CC23CCC(OCc4c(-c5c(Cl)cncc5Cl)noc4C4CC4)(CC2)CC3)cc(OC(F)(F)F)c1 [Example 378] | 130
O=C(O)c1cnc(C#CC23CCC(OCc4c(-c5c(Cl)cncc5Cl)noc4C4CC4)(CC2)CC3)c(F)c1 [Example 379] | 240
COc1cc(C#CC23CCC(OCc4c(-c5c(Cl)cncc5Cl)noc4C4CC4)(CC2)CC3)cc(C(=O)O)c1 [Example 380] | 24
COc1c(C#CC23CCC(OCc4c(-c5c(Cl)cncc5Cl)noc4C4CC4)(CC2)CC3)cccc1C(=O)O [Example 381] | 220
O=C(O)c1ccc2cc(C#CC34CCC(OCc5c(-c6c(Cl)cncc6Cl)noc5C5CC5)(CC3)CC4)ccc2n1 [Example 382] | 62
COc1c(C#CC23CCC(OCc4c(-c5c(Cl)cncc5Cl)noc4C4CC4)(CC2)CC3)cccc1C(=O)O [Example 383] | 820
N#Cc1ccc(C(=O)O)c2ccc(C34CCC(OCc5c(-c6c(Cl)cncc6Cl)noc5C5CC5)(CC3)CC4)nc12 [Example 384, 8-cyano-2-(4-((5-cyclopropyl-3-(3,5-dichloropyridin-4-yl)isoxazol-4-yl)methoxy)bicyclo[2.2.2]octan-1-yl)quinoline-5-carboxylic acid] | 820
O=C(O)c1ccc(C2CC2)c2nc(C34CCC(OCc5c(-c6c(Cl)cncc6Cl)noc5C5CC5)(CC3)CC4)ccc12 [Example 385, 8-cyclopropyl-2-(4-((5-cyclopropyl-3-(3,5-dichloropyridin-4-yl)isoxazol-4-yl)methoxy)bicyclo[2.2.2]octan-1-yl)quinoline-5-carboxylic acid] | 13
COCc1cc(C#CC23CCC(OCc4c(-c5c(Cl)cncc5Cl)noc4C4CC4)(CC2)CC3)cc(C(=O)O)c1 [Example 386] | 31
Cc1cc(C(=O)O)ncc1C#CC12CCC(OCc3c(-c4c(Cl)cncc4Cl)noc3C3CC3)(CC1)CC2 [Example 387] | 57
Cc1cc(C#CC23CCC(OCc4c(-c5c(Cl)cncc5Cl)noc4C4CC4)(CC2)CC3)cnc1C(=O)O [Example 388] | 55
Cc1ccc(C(=O)O)c2ccc(C34CCC(OCc5c(-c6c(Cl)cncc6Cl)noc5C5CC5)(CC3)CC4)nc12 [Example 389] | 6
CC(C)Oc1cc(C(=O)O)nc2ccc(C#CC34CCC(OCc5c(-c6c(Cl)cncc6Cl)noc5C5CC5)(CC3)CC4)cc12 [Example 390] | 20
CC(C)Oc1ccc(C(=O)O)c2ccc(C34CCC(OCc5c(-c6c(Cl)cncc6Cl)noc5C5CC5)(CC3)CC4)nc12 [Example 391, 2-(4-((5-cyclopropyl-3-(3,5-dichloropyridin-4-yl)isoxazol-4-yl)methoxy)bicyclo[2.2.2]octan-1-yl)-8-isopropoxyquinoline-5-carboxylic acid] | 14
O=C(O)c1ccc(OCC2CC2)c2nc(C34CCC(OCc5c(-c6c(Cl)cncc6Cl)noc5C5CC5)(CC3)CC4)ccc12 [Example 392] | 24
